Entries after “also recorded” stand apart in the source; their conditions may differ.
Test system: Kyn levels in BxPC3 cells (kynurenine generated by IDO1)
Assay: Cellular Kyn assay (automated Kyn screening assay)
Format: cell-based
Settings: for IC50: Homo sapiens, BXPC-3, 48 h, IFN-γ, L-Trp and compounds 48 h, mean ± SD, read-out: IC50 (Kyn assay), reduction of kynurenine levels

SMILES: CN(C)CC(C)(C)c1ccc(S(=O)(=O)N2C[C@H]3C[C@H]4C[C@H](C4(C)C)[C@@]3(COC(=O)Nc3ccc(I)cc3)C2)cc1 [compound 88, ((3aS,4R,6R,7aS)-2-((4-(1-(dimethylamino)-2-methylpropan-2-yl)phenyl)sulfonyl)-5,5-dimethyloctahydro-3aH-4,6-methanoisoindol-3a-yl)methyl (4-iodophenyl)carbamate]
- IC50: 2500 ± 100 nM

SMILES: CCOC(=O)C(C)(C)c1ccc(S(=O)(=O)N2C[C@H]3C[C@H]4C[C@H](C4(C)C)[C@@]3(COC(=O)Nc3ccc(I)cc3)C2)cc1 [compound 89, Ethyl 2-(4-(((3aS,4R,6R,7aS)-3a-((((4-iodophenyl)carbamoyl)oxy)methyl)-5,5-dimethyloctahydro-2H-4,6-methanoisoindol-2-yl)sulfonyl)phenyl)-2-methylpropanoate]
- IC50: 250 ± 80 nM

SMILES: CC(C)(C)c1ccc(S(=O)(=O)N2C[C@H]3C[C@H]4C[C@H](C4(C)C)[C@@]3(COC(=O)Nc3ccccc3I)C2)cc1 [compound 37, ((3aS,4R,6R,7aS)-2-((4-(tert-butyl)phenyl)sulfonyl)-5,5-dimethyloctahydro-3aH-4,6-methanoisoindol-3a-yl)methyl (2-iodophenyl)carbamate]
- IC50: 890 ± 180 nM

SMILES: Cc1ccc(S(=O)(=O)N2C[C@H]3C[C@H]4C[C@H](C4(C)C)[C@@]3(COC(=O)Nc3ccc(I)cc3)C2)cn1 [compound 62, ((3aS,4R,6R,7aS)-5,5-dimethyl-2-((6-methylpyridin-3-yl)sulfonyl)octahydro-3aH-4,6-methanoisoindol-3a-yl)methyl (4-iodophenyl)carbamate]
- IC50: 1300 ± 300 nM

SMILES: Cc1cccc(S(=O)(=O)N2C[C@H]3C[C@H]4C[C@H](C4(C)C)[C@@]3(COC(=O)Nc3ccc(I)cc3)C2)c1 [compound 67, ((3aS,4R,6R,7aS)-5,5-dimethyl-2-(m-tolylsulfonyl)octahydro-3aH-4,6-methanoisoindol-3a-yl)methyl (4-iodophenyl)carbamate]
- IC50: 1100 ± 500 nM

SMILES: CC(C)(C)c1ccc(S(=O)(=O)N2C[C@H]3C[C@H]4C[C@H](C4(C)C)[C@@]3(COC(=O)Nc3ccccc3Br)C2)cc1 [compound 38, ((3aS,4R,6R,7aS)-2-((4-(tert-butyl)phenyl)sulfonyl)-5,5-dimethyloctahydro-3aH-4,6-methanoisoindol-3a-yl)methyl (2-bromophenyl)carbamate]
- IC50: 390 ± 70 nM

SMILES: CC(C)(C)c1ccc(S(=O)(=O)N2C[C@H]3C[C@H]4C[C@H](C4(C)C)[C@@]3(COC(=O)Nc3ccc(F)cc3)C2)cc1 [compound 34, ((3aS,4R,6R,7aS)-2-((4-(tert-butyl)phenyl)sulfonyl)-5,5-dimethyloctahydro-3aH-4,6-methanoisoindol-3a-yl)methyl (4-fluorophenyl)carbamate]
- IC50: > 10000 nM

SMILES: CC(C)(C)c1ccc(S(=O)(=O)N2C[C@@H]3C[C@@H]4[C@H](C[C@]3(COC(=O)Nc3ccc(I)cc3)C2)C4(C)C)cc1 [compound 21, ((3aR,4aS,5aR,6aR)-2-((4-(tert-butyl)phenyl)sulfonyl)-5,5-dimethyloctahydrocyclopropa[f]isoindol-3a(1H)-yl)methyl (4-iodophenyl)carbamate]
- activity in cellular Kyn assay (in words): inactive

SMILES: CC1(C)[C@H]2C[C@@H]3CN(S(=O)(=O)c4cccs4)C[C@]3(COC(=O)Nc3ccc(I)cc3)[C@@H]1C2 [compound 63, ((3aS,4R,6R,7aS)-5,5-dimethyl-2-(thiophen-2-ylsulfonyl)octahydro-3aH-4,6-methanoisoindol-3a-yl)methyl (4-iodophenyl)carbamate]
- IC50: 3500 ± 300 nM

SMILES: Cc1ccc(NC(=O)OC[C@]23CN(Cc4ccccc4)C[C@H]2C[C@H]2C[C@@H]3C2(C)C)cc1 [compound 9, ((3aS,4R,6R,7aS)-2-benzyl-5,5-dimethyloctahydro-3aH-4,6-methanoisoindol-3a-yl) methyl p-tolylcarbamate]
- activity in cellular Kyn assay (in words): abolished activity; also recorded: loss of activity

SMILES: CC(C)(C)c1ccc(-c2ccc(S(=O)(=O)N3C[C@H]4C[C@H]5C[C@H](C5(C)C)[C@@]4(COC(=O)Nc4ccc(I)cc4)C3)cc2)cc1 [compound 76, ((3aS,4R,6R,7aS)-2-((4'-(tert-butyl)-[1,1'-biphenyl]-4-yl)sulfonyl)-5,5-dimethyloctahydro-3aH-4,6-methanoisoindol-3a-yl)methyl (4-iodophenyl)carbamate]
- IC50: > 10000 nM

SMILES: Cc1ccccc1S(=O)(=O)N1C[C@H]2C[C@H]3C[C@H](C3(C)C)[C@@]2(COC(=O)Nc2ccc(I)cc2)C1 [compound 66, ((3aS,4R,6R,7aS)-5,5-dimethyl-2-(o-tolylsulfonyl)octahydro-3aH-4,6-methanoisoindol-3a-yl)methyl (4-iodophenyl)carbamate]
- IC50: 650 ± 270 nM

SMILES: Cc1ccc(NC(=O)OC[C@]23CN(S(=O)(=O)C(C)C)C[C@H]2C[C@H]2C[C@@H]3C2(C)C)cc1 [compound 54, ((3aS,4R,6R,7aS)-2-(isopropylsulfonyl)-5,5-dimethyloctahydro-3aH-4,6-methanoisoindol-3a-yl) methyl p-tolylcarbamate]
- IC50: 4700 ± 410 nM

SMILES: Cc1ccc(OC(=O)OC[C@]23CN(S(=O)(=O)c4ccc(C(C)(C)C)cc4)C[C@H]2C[C@H]2C[C@@H]3C2(C)C)cc1 [compound 13, ((3aS,4R,6R,7aS)-2-((4-(tert-butyl)phenyl)sulfonyl)-5,5-dimethyloctahydro-3aH-4,6-methanoisoindol-3a-yl)methyl p-tolyl carbonate]
- activity in cellular Kyn assay (in words): did not improve activity; also recorded: inactive

SMILES: CC(C)(C)c1ccc(S(=O)(=O)N2CC3CCCC3(COC(=O)Nc3ccc(I)cc3)C2)cc1 (centres unmarked) [compound 26, (2-((4-(tert-butyl)phenyl)sulfonyl)hexahydrocyclopenta [c]pyrrol-3a(1H)-yl) methyl (4-iodophenyl) carbamate]
- activity in cellular Kyn assay (in words): inactive

SMILES: CC(C)(C)c1ccc(S(=O)(=O)N2C[C@H]3C[C@H]4C[C@H](C4(C)C)[C@@]3(COC(=O)Nc3ccc(C(F)(F)F)cc3)C2)cc1 [compound 45, ((3aS,4R,6R,7aS)-2-((4-(tert-butyl)phenyl)sulfonyl)-5,5-dimethyloctahydro-3aH-4,6-methanoisoindol-3a-yl)methyl (4-(trifluoromethyl)phenyl)carbamate]
- IC50: > 10000 nM

SMILES: CC(C)(C)c1ccc(S(=O)(=O)N2C[C@H]3C[C@H]4C[C@H](C4(C)C)[C@@]3(COC(=O)Nc3cccc(Br)c3)C2)cc1 [compound 39, ((3aS,4R,6R,7aS)-2-((4-(tert-butyl)phenyl)sulfonyl)-5,5-dimethyloctahydro-3aH-4,6-methanoisoindol-3a-yl)methyl (3-bromophenyl)carbamate]
- IC50: 9900 ± 1580 nM

SMILES: Cc1ccc(S(=O)(=O)N2C[C@H]3C[C@H]4C[C@H](C4(C)C)[C@@]3(COC(=O)Nc3ccc(I)cc3)C2)cc1 [compound 68, ((3aS,4R,6R,7aS)-5,5-dimethyl-2-tosyloctahydro-3aH-4,6-methanoisoindol-3a-yl)methyl (4-iodophenyl)carbamate]
- IC50: 720 ± 270 nM

SMILES: CC(C)(C)c1ccc(S(=O)(=O)N2C[C@H]3C[C@H]4C[C@H](C4(C)C)[C@@]3(COC(=O)Nc3ccc(Cl)cc3)C2)cc1 [compound 35, ((3aS,4R,6R,7aS)-2-((4-(tert-butyl)phenyl)sulfonyl)-5,5-dimethyloctahydro-3aH-4,6-methanoisoindol-3a-yl)methyl (4-chlorophenyl)carbamate]
- IC50: 510 ± 80 nM

SMILES: CC(C)c1ccc(S(=O)(=O)N2C[C@H]3C[C@H]4C[C@H](C4(C)C)[C@@]3(COC(=O)Nc3ccc(I)cc3)C2)cc1 [compound 69, ((3aS,4R,6R,7aS)-2-((4-isopropylphenyl)sulfonyl)-5,5-dimethyloctahydro-3aH-4,6-methanoisoindol-3a-yl)methyl (4-iodophenyl)carbamate]
- IC50: 140 ± 20 nM

SMILES: Cc1ccc(NC(=O)OC[C@]23CN(S(=O)(=O)c4ccccc4Br)C[C@H]2C[C@H]2C[C@@H]3C2(C)C)cc1 [compound 59, ((3aS,4R,6R,7aS)-2-((2-bromophenyl)sulfonyl)-5,5-dimethyloctahydro-3aH-4,6-methanoisoindol-3a-yl)methyl p-tolylcarbamate]
- IC50: 6200 ± 1700 nM

SMILES: CC(C)(C)c1ccc(S(=O)(=O)N2C[C@H]3C[C@H]4C[C@H](C4(C)C)[C@@]3(COC(=O)Nc3cccc(N=[N+]=[N-])c3)C2)cc1 [compound 41, ((3aS,4R,6R,7aS)-2-((4-(tert-butyl)phenyl)sulfonyl)-5,5-dimethyloctahydro-3aH-4,6-methanoisoindol-3a-yl)methyl (3-azidophenyl)carbamate]
- IC50: > 10000 nM

SMILES: Cc1ccc(NC(=O)NC[C@]23CN(S(=O)(=O)c4ccc(C(C)(C)C)cc4)C[C@H]2C[C@H]2C[C@@H]3C2(C)C)cc1 [compound 7, 1-(((3aR,4R,6R,7aS)-2-((4-(tert-butyl)phenyl)sulfonyl)-5,5-dimethyloctahydro-3aH-4,6-methanoisoindol-3a-yl)methyl)-3-(p-tolyl) urea]
- activity in cellular Kyn assay (in words): did not improve activity

SMILES: CC(C)(C)c1ccc(S(=O)(=O)N2CC3CCCCC3(COC(=O)Nc3ccc(I)cc3)C2)cc1 (centres unmarked) [compound 25, (2-((4-(tert-butyl)phenyl)sulfonyl)octahydro-3aH-isoindol-3a-yl) methyl (4-iodophenyl) carbamate]
- activity in cellular Kyn assay (in words): inactive

SMILES: CC(C)(C)c1ccc(C(=O)N2C[C@H]3C[C@H]4C[C@H](C4(C)C)[C@@]3(COC(=O)Nc3ccc(I)cc3)C2)cc1 [compound 16, ((3aS,4R,6R,7aS)-2-(4-(tert-butyl)benzoyl)-5,5-dimethyloctahydro-3aH-4,6-methanoisoindol-3a-yl)methyl (4-iodophenyl)carbamate]
- activity in cellular Kyn assay (in words): abolished activity

SMILES: COc1ccc(S(=O)(=O)N2C[C@H]3C[C@H]4C[C@H](C4(C)C)[C@@]3(COC(=O)Nc3ccc(C)cc3)C2)cc1 [compound 57, ((3aS,4R,6R,7aS)-2-((4-methoxyphenyl)sulfonyl)-5,5-dimethyloctahydro-3aH-4,6-methanoisoindol-3a-yl)methyl p-tolylcarbamate]
- IC50: > 10000 nM

From PMC12811658, “Design, Synthesis, and Structural Evolution of Pseudo‐Natural Product IDO1 Inhibitors and Degraders” (Angewandte Chemie (International Ed. in English), 2025)
